# Data published in BindingDB's records for PubMed 8035312 (University of California, 1994).
# Values joined by “and” are separate entries in the source; they are usually repeats but may differ in a detail not shown here. Identical values can stand only once.
# Target: Nicotinic acetylcholine receptor (Rattus leucopus, UniProt Q62594)
# Sequence (Q62594 whole entry): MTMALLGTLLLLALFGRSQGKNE
row,SMILES,Ki
1,C=C(C=O)C[C@H]1C[C@H](O)[C@]2(C)O[C@@H]3C[C@@H]4O[C@@H]5C[C@]6(C)O[C@]7(C)CC[C@@H]8O[C@@H]9C[C@]%10(C)O[C@@H]%11C(C)=CC(=O)O[C@H]%11C[C@H]%10O[C@H]9C[C@@H](C)[C@H]8O[C@H]7C[C@H]6O[C@@]5(C)C/C=C\[C@H]4O[C@H]3C[C@H]2O1,> 10000 nM and 1000 nM
2,CNC(=O)OCC[N+](C)(C)C [CAS_14721-69-8],5.2 nM
3,C[N+](C)(C)CCCCCC[N+](C)(C)C [Hexamethoniumdibromide],> 10000 nM
4,CN1[C@@H](C[C@@H](O)c2ccccc2)CCC[C@H]1CC(=O)c1ccccc1 [Lobeline],15.5 nM
5,O=C1N(Cc2ccccc2)C2C[S+]3CCCC3C2N1Cc1ccccc1 (stereo unspecified) [NSC_441310],> 10000 nM
6,"COc1cc2c3cc1Oc1cc(ccc1O)C[C@@H]1c4c(cc(OC)c(O)c4Oc4ccc(cc4)C[C@@H]3N(C)CC2)CC[N+]1(C)C [Tubocurarine,d]",1000 nM and 282 nM
